Experimental data reported in US20220298135A1, “5-HETEROARYL-PYRIDIN-2-AMINE COMPOUNDS AS NEUROPEPTIDE FF RECEPTOR ANTAGONISTS” (Domain Therapeutics, priority 2019, published 2022).
pIC50: −log10 of the molar value.

Tests used:
[1] = molecular target: T1, human NPFFR1 (hNPFFR1) receptor (Homo sapiens, UniProt Q9GZQ6); assay: Human NPFFR1 evaluation using BRET biosensors (antagonist IC50); type: cell-based; conditions: hNPFFR1 transiently over-expressed in HEK-293 T cells; BRET signal; stimulation by EC80 RFRP-3
T1 construct: expressed in transfected cells; host or cells: HEK-293 T cells, transient co-transfection with polyethylenimine
T1 sequence (Q9GZQ6 whole entry): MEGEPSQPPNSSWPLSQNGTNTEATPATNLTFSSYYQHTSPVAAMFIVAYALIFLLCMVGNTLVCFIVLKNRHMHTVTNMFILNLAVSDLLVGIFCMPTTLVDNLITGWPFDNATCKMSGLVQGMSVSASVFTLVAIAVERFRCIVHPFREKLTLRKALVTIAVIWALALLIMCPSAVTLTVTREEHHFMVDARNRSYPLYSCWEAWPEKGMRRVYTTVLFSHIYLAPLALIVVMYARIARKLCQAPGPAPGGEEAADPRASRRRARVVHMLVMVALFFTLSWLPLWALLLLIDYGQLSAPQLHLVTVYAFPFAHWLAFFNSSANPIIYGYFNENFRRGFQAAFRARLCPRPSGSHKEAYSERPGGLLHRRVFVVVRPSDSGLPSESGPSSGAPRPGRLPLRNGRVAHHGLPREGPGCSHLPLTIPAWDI
Method in brief: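 HEK-293T cells co-transfected with receptor, GαoB and Gi-effector BRET biosensor pair, assayed 48 h later. Compound 10 min, then EC80 RFRP-3 with 10 min luminescence read; IC50 from 20-concentration variable-slope fit, duplicate, two independent experiments.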

| Structure (SMILES) | melting point | pIC50 [1] |
| --- | --- | --- |
| CCc1nc(N)ccc1-c1c(F)c(F)cc2cc(O)cnc12.Cl [Example 112, 8-(6-amino-2-ethylpyridin-3-yl)-6,7-difluoroquinolin-3-ol] | 204 to 210 °C | 6.00 to 7.00 |
| CCc1nc(N)ccc1-c1c(F)c(F)cc2ccc(O)nc12.Cl [Example 161, 8-(6-amino-2-ethylpyridin-3-yl)-6,7-difluoroquinolin-2(1H)-one] | > 250 °C | 6.00 to 7.00 |
| Cl.Nc1ccc(-c2cc(F)cc3cccnc23)c(N)n1 [Example 52, 3-(6-fluoroquinolin-8-yl)pyridine-2,6-diamine] | > 250 °C | > 7.00 |
| CCc1nc(N)ccc1-c1cccc2cc(C)cnc12.Cl [Example 95, 6-ethyl-5-(3-methylquinolin-8-yl)pyridin-2-amine] | > 250 °C | > 7.00 |
| CCc1nc(N)ccc1-c1cccc2ccc(C(=O)N3CCCOCC3)nc12.Cl [Example 167, (8-(6-amino-2-ethylpyridin-3-yl)quinolin-2-yl)(1,4-oxazepan-4-yl)methanone] | 120 to 131 °C | > 7.00 |
| CCCc1nc(N)ccc1-c1csc2ccccc12.Cl [Example 7, 5-Benzo[b]thiophen-3-yl-6-propyl-pyridin-2-ylamine] | 175 to 190 °C | 6.00 to 7.00 |
| CCc1nc(N)ccc1-c1cccc2cc(F)cnc12.Cl [Example 97, 6-ethyl-5-(3-fluoroquinolin-8-yl)pyridin-2-amine] | 210 to 245 °C | > 7.00 |
| CCc1nc(N)ccc1-c1cccc2ccc(N3CCCC3)nc12.Cl [Example 131, 6-ethyl-5-(2-(pyrrolidin-1-yl)quinolin-8-yl)pyridin-2-amine] | > 250 °C | 6.00 to 7.00 |
| CC(C)CCc1nc(N)ccc1-c1c(F)ccc2cccnc12.Cl [Example 73, 5-(7-fluoroquinolin-8-yl)-6-isopentylpyridin-2-amine] | 100 to 140 °C | > 7.00 |
| CCc1nc(N)ccc1-c1c(F)ccc2c1OC(C)(C)CC2.Cl [Example 177, 6-ethyl-5-(7-fluoro-2,2-dimethylchroman-8-yl)pyridin-2-amine] | 80 to 90 °C | > 7.00 |
| Nc1ccc(-c2ccnc3ccccc23)c(N)n1 [Example 35, 3-Quinolin-4-yl-pyridine-2,6-diamine] | > 250 °C | < 6.00 |
| Cl.Nc1ccc(-c2cccc3c2OCCC3)c(N)n1 [Example 37, 3-Chroman-8-yl-pyridine-2,6-diamine] | 110 to 124 °C | > 7.00 |
| CC(C)(C)OC(=O)n1cc(-c2ccc(N)nc2N)c2ccccc21 [Example 17, Tert-butyl 3-(2,6-diamino-3-pyridyl)indole-1-carboxylate] | 150 to 154 °C | < 6.00 |
| CCc1nc(N)ccc1-c1ccccc1-c1ccc(N2CCOCC2)nc1.Cl [Example 84, 6-ethyl-5-(2-(6-morpholinopyridin-3-yl)phenyl)pyridin-2-amine] | 95 to 110 °C | > 7.00 |
| Cl.Cn1nccc1-c1ccccc1-c1ccc(N)nc1N [Example 48, 3-(2-(1-methyl-1H-pyrazol-5-yl)phenyl)pyridine-2,6-diamine] | > 250 °C | < 6.00 |
| Cn1ccc2cccc(-c3ccc(N)nc3N)c21 [Example 49, 3-(1-methyl-1H-indol-7-yl)pyridine-2,6-diamine] | 100 to 117 °C | > 7.00 |
| CCc1nc(N)ccc1-c1cccc2c1NC(=O)CC2.Cl [Example 155, 8-(6-amino-2-ethylpyridin-3-yl)-3,4-dihydroquinolin-2(1H)-one] | 233 to 237 °C | 6.00 to 7.00 |

| Structure (SMILES) | melting point | pIC50 [1] |
| --- | --- | --- |
| Cl.Nc1ccc(-c2cccc3cccnc23)c(F)n1 [Example 2, 6-Fluoro-5-quinolin-8-yl-pyridin-2-ylamine] | > 250 °C | < 6.00 |
| CCc1nc(N)ccc1-c1cccc2ccc(C(=O)N3CCC(c4ccccc4)CC3)nc12.Cl [Example 172, (8-(6-amino-2-ethylpyridin-3-yl)quinolin-2-yl)(4-phenylpiperidin-1-yl)methanone] | > 250 °C | 6.00 to 7.00 |
| CCc1nc(N)ccc1-c1cccc2ccc(=O)[nH]c12.Cl [Example 154, 8-(6-amino-2-ethylpyridin-3-yl)quinolin-2(1H)-one] | > 250 °C | 6.00 to 7.00 |
| CCc1nc(N)ccc1-c1csc2cc(OC)ccc12 [Example 5, 6-Ethyl-5-(6-methoxybenzothiophen-3-yl)pyridin-2-amine] | 151 to 155 °C | < 6.00 |
| CCc1nc(N)ccc1-c1cccc2ccc(C3CCCCC3)nc12.Cl [Example 118, 5-(2-cyclohexylquinolin-8-yl)-6-ethylpyridin-2-amine] | 137 to 142 °C | > 7.00 |
| CCc1nc(N)ccc1-c1ccc(F)c2cccnc12.Cl [Example 1, 6-ethyl-5-(5-fluoroquinolin-8-yl)pyridin-2-amine] | 120 to 140 °C | > 7.00 |
| CCc1nc(N)ccc1-c1c(C)sc2ccccc12.Cl [Example 41, 6-Ethyl-5-(2-methylbenzothiophen-3-yl)pyridin-2-amine] | 70 to 72 °C | 6.00 to 7.00 |
| CCc1nc(N)ccc1-c1csc2ccc(F)cc12.Cl [Example 43, 6-Ethyl-5-(5-fluorobenzothiophen-3-yl)pyridin-2-amine] | > 250 °C | 6.00 to 7.00 |
| CCc1nc(N)ccc1-c1c(F)ccc2ccc(C)nc12.Cl [Example 76, 6-ethyl-5-(7-fluoro-2-methylquinolin-8-yl)pyridin-2-amine] | 95 to 120 °C | > 7.00 |
| CCc1nc(N)ccc1-c1nccc2cccnc12.Cl [Example 100, 6-ethyl-5-(1,7-naphthyridin-8-yl)pyridin-2-amine] | 160 to 200 °C | < 6.00 |
| Cl.Nc1ccc(-c2cccc3ccsc23)c(N)n1 [Example 29, 3-(Benzothiophen-7-yl)pyridine-2,6-diamine] | 100 to 113 °C | 6.00 to 7.00 |
| CCc1nc(N)ccc1-c1csc2ccccc12 [Example 4, 5-Benzo[b]thiophen-3-yl-6-ethyl-pyridin-2-ylamine] | 108 to 120 °C | 6.00 to 7.00 |
| CCc1nc(N)ccc1-c1cccc2cc3c(nc12)CCN(C)C3.Cl.Cl [Example 114, 6-ethyl-5-(2-methyl-1,2,3,4-tetrahydrobenzo[b][1,6]naphthyridin-6-yl)pyridin-2-amine] | 197 to 211 °C | 6.00 to 7.00 |
| CCc1nc(N)ccc1-c1c(F)ccc2ccc(N3CCCCCC3)nc12.Cl [Example 137, 5-(2-(azepan-1-yl)-7-fluoroquinolin-8-yl)-6-ethylpyridin-2-amine] | 110 to 145 °C | > 7.00 |
| Cl.Nc1ccc(-c2cccc3ccoc23)c(N)n1 [Example 50, 3-(benzofuran-7-yl)pyridine-2,6-diamine] | > 250 °C | 6.00 to 7.00 |
| CCc1nc(N)ccc1-c1cccc2ccncc12.Cl [Example 6, 6-Ethyl-5-(8-isoquinolyl)pyridin-2-amine] | > 250 °C | > 7.00 |
